The results in this text go back to publication PMC12150293 (RSC Advances, 2025).

SMILES strings stand for the structures.

One series addresses EGFR^L858R/T790M/C797S (Homo sapiens, UniProt P00533, C797S/L858R/T790M). As to the kind of experiment: biochemical.
Series [1] relates to TGF. Nature of the series: mRNA expression. Format: cell-based, human. The conditions noted are these: MDA-MB-231 cells; reduction to.
For the next series, the system named is MDA-MB-231 cells. As to the kind of experiment: MTT cytotoxicity assay on breast cancer cells. A general note: Formazan colour is commonly taken as a measure of viable cells.
A further series concerns A549 cells. As to the kind of experiment: MTT cytotoxicity assay on non-small cell lung cancer cells.
The next series relates to caspase-3. As to the kind of experiment: Caspase-3 activation assay. Format: cell-based, human. The note with it: A549 cells, compound at its IC50 concentration, 48 h.
Series [2] relates to miRNA-132. As to the kind of experiment: miRNA-132 expression in MDA-MB-231 cells. It is filed as cell-based, human. The note with it: elevation.
For series [3], the system named is miRNA-200c. Nature of the series: miRNA-200c expression in A549 cells. It is filed as cell-based, human. The conditions noted are these: enhancement.
The subject of the next series is caspase-9. Nature of the series: Caspase-9 activation assay. Format: cell-based, human. The conditions noted are these: A549 cells, compound at its IC50 concentration, 48 h.
In series [4] the test system is miRNA-132. As to the kind of experiment: miRNA-132 expression in A549 cells. Format: cell-based, human. The conditions noted are these: enhancement.
The subject of series [5] is c-Myc. Nature of the series: mRNA expression. Format: cell-based, human. The conditions noted are these: MDA-MB-231 cells; reduction to.
Series [6] relates to c-Myc. Nature of the series: mRNA expression. Format: cell-based, human. The note with it: A549 cells.
Another series concerns the target EGFR^WT (Homo sapiens, UniProt P00533). Nature of the series: EGFR^WT kinase inhibition assay. It is filed as biochemical.
In the next series the test system is BEAS-2B cells. As to the kind of experiment: MTT cytotoxicity assay on normal human lung epithelial cells. The conditions noted are these: 48 h, read-out: BEAS-2B IC50.
For series [7], the system named is TGF. Nature of the series: mRNA expression. The note with it: A549 cells. It is filed as cell-based, human.
Another series relates to CD-133. Nature of the series: mRNA expression. The conditions noted are these: MDA-MB-231 cells; reduction to. Format: cell-based, human.
Series [8] has as its system miRNA-200c. Nature of the series: miRNA-200c expression in MDA-MB-231 cells. It is filed as cell-based, human. The conditions noted are these: elevation.
For a further series, the system named is CD-44. As to the kind of experiment: mRNA expression. Format: cell-based, human. The conditions noted are these: MDA-MB-231 cells; reduction to.
A further series has as its system VEGF. As to the kind of experiment: mRNA expression. It is filed as cell-based, human. The conditions noted are these: MDA-MB-231 cells; reduction to.

EGFR^L858R/T790M/C797S, sequence (P00533 25-1210 T790M/C797S/L858R): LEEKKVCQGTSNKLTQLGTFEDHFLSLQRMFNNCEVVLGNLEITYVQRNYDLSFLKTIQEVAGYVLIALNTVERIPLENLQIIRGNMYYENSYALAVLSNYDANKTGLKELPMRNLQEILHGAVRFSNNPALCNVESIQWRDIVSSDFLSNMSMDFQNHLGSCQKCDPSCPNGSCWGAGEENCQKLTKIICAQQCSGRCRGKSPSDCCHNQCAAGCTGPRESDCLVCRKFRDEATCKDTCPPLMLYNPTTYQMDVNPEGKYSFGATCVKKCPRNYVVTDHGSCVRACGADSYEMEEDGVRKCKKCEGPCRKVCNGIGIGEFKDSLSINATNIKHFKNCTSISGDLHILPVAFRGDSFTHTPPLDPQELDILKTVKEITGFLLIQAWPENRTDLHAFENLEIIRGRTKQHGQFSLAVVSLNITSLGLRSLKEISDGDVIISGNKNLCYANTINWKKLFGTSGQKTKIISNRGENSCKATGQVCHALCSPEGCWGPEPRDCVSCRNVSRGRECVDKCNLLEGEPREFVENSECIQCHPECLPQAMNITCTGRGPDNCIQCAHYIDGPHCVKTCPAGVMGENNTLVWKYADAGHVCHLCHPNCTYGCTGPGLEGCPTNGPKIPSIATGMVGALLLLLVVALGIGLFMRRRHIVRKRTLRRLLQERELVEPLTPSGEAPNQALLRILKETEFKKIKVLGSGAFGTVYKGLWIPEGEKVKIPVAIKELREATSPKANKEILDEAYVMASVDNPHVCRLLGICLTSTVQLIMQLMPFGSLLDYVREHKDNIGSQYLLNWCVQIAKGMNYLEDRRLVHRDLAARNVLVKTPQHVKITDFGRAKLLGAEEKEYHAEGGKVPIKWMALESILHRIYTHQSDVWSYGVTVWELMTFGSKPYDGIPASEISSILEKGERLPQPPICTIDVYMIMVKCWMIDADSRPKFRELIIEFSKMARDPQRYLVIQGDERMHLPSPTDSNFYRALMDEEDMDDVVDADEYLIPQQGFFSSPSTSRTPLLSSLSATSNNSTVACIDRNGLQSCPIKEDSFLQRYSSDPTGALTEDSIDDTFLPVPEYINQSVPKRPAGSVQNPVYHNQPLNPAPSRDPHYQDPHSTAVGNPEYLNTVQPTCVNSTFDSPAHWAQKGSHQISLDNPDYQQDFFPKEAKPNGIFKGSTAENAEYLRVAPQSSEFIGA
EGFR^WT, sequence (P00533 25-1210): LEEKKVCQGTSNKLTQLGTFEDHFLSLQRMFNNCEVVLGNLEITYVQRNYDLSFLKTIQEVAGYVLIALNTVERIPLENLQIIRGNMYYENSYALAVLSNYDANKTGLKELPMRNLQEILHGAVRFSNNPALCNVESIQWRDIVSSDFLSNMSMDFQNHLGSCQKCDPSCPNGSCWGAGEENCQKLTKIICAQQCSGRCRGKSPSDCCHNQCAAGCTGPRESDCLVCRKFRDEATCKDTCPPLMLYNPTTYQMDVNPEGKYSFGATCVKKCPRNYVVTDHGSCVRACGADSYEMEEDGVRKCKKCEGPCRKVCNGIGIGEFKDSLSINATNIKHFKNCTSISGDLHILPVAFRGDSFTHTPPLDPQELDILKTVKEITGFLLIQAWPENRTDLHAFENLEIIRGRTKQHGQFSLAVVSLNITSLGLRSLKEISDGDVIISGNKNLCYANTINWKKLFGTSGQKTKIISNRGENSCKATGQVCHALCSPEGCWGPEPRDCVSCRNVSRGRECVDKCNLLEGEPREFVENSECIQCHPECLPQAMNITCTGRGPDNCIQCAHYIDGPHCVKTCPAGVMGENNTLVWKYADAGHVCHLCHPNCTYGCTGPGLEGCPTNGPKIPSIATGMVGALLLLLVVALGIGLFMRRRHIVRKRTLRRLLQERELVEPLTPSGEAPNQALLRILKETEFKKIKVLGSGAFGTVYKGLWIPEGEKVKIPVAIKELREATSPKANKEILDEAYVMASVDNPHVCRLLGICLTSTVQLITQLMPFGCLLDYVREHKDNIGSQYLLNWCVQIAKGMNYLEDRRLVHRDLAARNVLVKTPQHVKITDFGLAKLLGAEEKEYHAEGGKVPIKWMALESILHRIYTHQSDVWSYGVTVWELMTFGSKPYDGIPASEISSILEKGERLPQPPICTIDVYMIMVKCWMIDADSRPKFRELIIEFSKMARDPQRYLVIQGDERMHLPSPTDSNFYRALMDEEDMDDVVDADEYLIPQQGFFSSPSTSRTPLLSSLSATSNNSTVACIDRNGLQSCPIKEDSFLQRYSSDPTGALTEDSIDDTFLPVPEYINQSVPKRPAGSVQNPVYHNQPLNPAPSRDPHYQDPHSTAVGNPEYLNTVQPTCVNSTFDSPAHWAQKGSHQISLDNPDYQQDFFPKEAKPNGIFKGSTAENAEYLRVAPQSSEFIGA

The IC50 is the concentration needed to halve the response being measured. For the compound `O=C(Nc1ccc([N+](=O)[O-])cc1)C(c1ccc(C(F)(F)F)cc1)N(C(=O)c1ccccc1Cl)c1ccccc1` (centres unmarked) [Compound 5, 2-Chloro-N-(2-((4-nitrophenyl)amino)-2-oxo-1-(4-(trifluoromethyl)phenyl)ethyl)-N-phenylbenzamide], the IC50 was determined as 0.19 ± 0.05 µM against EGFR^L858R/T790M/C797S; 10.1 ± 0.6 µM with MDA-MB-231 cells (Homo sapiens, MDA-MB-231, 48 h, read-out: MDA-MB-231 IC50); 6.2 ± 0.3 µM in the series on A549 cells (Homo sapiens, A549, 48 h, read-out: A549 IC50); 0.0021 ± 1e-05 µM at EGFR^WT; 70.4 ± 5.1 µM with BEAS-2B cells. In the series on TGF [1], the “expression of TGF compared to untreated control” value came to 0.4 fold. Also, the “fold more potent than 5-FU” value in the series with MDA-MB-231 cells (MDA-MB-231 cells, ratio of IC50 values) is listed as 1.42 fold; in the series on A549 cells (A549 cells, ratio of IC50 values) it was 1.82 fold. Also, the “upregulation of caspase-3 compared to the untreated control” value in the series with caspase-3 was 1.8 folds. Further, the “miRNA-132 expression, fold change compared to control” value with miRNA-132 [2] is 3.8 fold; in the series on miRNA-132 [4] it was 2.4 fold. The results for the “miRNA-200c expression, fold change compared to control” value in the series on miRNA-200c [3] and in the series on miRNA-200c [8] were 1.9 fold and 3.1 fold, respectively. The “upregulation of caspase-9 compared to the untreated control” value in the series on caspase-9 was 2.3 folds. Moreover, the “expression of c-Myc compared to untreated control” value in the series on c-Myc [5] is recorded as 0.36 fold. In addition, the “fold reduction in the expression of c-Myc in comparison to untreated control” value in the series on c-Myc [6] was determined as 0.41 fold. For the same compound, in the series with TGF [7], the “fold reduction in the expression of TGF in comparison to untreated control” value is given as 0.69 fold. In addition, in the series on CD-133, the “expression of CD-133 compared to untreated control” value is recorded as 0.7 fold. Besides, in the series on CD-44, the “expression of CD-44 compared to untreated control” value came to 0.5 fold. In the series with VEGF, the “expression of VEGF compared to untreated control” value is listed as 0.5 fold.
